PubChem BioAssay (NCI)
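Briefly, cells in 96-well plates were exposed to five compound concentrations for 48 h, and endpoints were estimated by linear interpolation. TGI: total growth inhibition.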

What was measured:
Test in all cases: NCI-60 cell line screen, 48 h
MOLT-4 leukemia = tested on: MOLT-4 leukemia
HT29 colon = tested on: HT29 colon
MDA-N = tested on: MDA-N
PC-3 prostate = tested on: PC-3 prostate
COLO 205 colon = tested on: COLO 205 colon
SK-MEL-2 melanoma = tested on: SK-MEL-2 melanoma
CAKI-1 renal = tested on: CAKI-1 renal
MDA-MB-435 = tested on: MDA-MB-435
HL-60(TB) leukemia = tested on: HL-60(TB) leukemia
SR leukemia = tested on: SR leukemia
CCRF-CEM leukemia = tested on: CCRF-CEM leukemia
HCT-15 colon = tested on: HCT-15 colon
HS 578T breast = tested on: HS 578T breast
SF-295 CNS = tested on: SF-295 CNS
IGROV1 ovarian = tested on: IGROV1 ovarian
NCI-H522 lung = tested on: NCI-H522 lung
OVCAR-8 ovarian = tested on: OVCAR-8 ovarian
SK-MEL-28 melanoma = tested on: SK-MEL-28 melanoma
SN12C renal = tested on: SN12C renal
NCI/ADR-RES ovarian = tested on: NCI/ADR-RES ovarian
MALME-3M melanoma = tested on: MALME-3M melanoma
HOP-92 NSCLC = tested on: HOP-92 NSCLC
KM12 colon = tested on: KM12 colon
RPMI-8226 leukemia = tested on: RPMI-8226 leukemia
HOP-62 NSCLC = tested on: HOP-62 NSCLC
NCI-H460 lung = tested on: NCI-H460 lung
A498 renal = tested on: A498 renal
DU-145 prostate = tested on: DU-145 prostate
SK-OV-3 ovarian = tested on: SK-OV-3 ovarian
M14 melanoma = tested on: M14 melanoma
SNB-75 CNS = tested on: SNB-75 CNS
UACC-62 melanoma = tested on: UACC-62 melanoma
U251 CNS = tested on: U251 CNS
MDA-MB-231 breast = tested on: MDA-MB-231 breast
SK-MEL-5 melanoma = tested on: SK-MEL-5 melanoma
NCI-H23 lung = tested on: NCI-H23 lung
T-47D breast = tested on: T-47D breast
HCT-116 colon = tested on: HCT-116 colon
OVCAR-3 ovarian = tested on: OVCAR-3 ovarian

Measured: TGI

S=C(/C=C1\SC(=Nc2ccccc2)C(=Nc2ccccc2)N1c1ccccc1)Nc1ccccc1
> 100 µM: all assays above
